Values belong to the compound of their own block, whether it stands above or below them.
Tests used:
[1] = tested on: human liver carcinoma (HepG2); assay: MTT cytotoxicity assay, HepG2; format: cell-based; conditions: 48 h, mean ± SD
Method: (§1) The cells of human liver carcinoma (HepG2), human breast adenocarcinoma (MCF-7), human colorectal carcinoma (HCT-116), and human lung carcinoma (A549) were purchased from the American Type Culture Collection (Rockville, MD). All cells were maintained in a Dulbecco’s modified Eagle’s medium (DMEM), which was supplemented with 10% of heat-inactivated fetal bovine serum (FBS) and 100 U/mL penicillin and streptomycin each. The cells were grown at 37 °C in a humidified atmosphere of 5% CO2.
(§2) The cytotoxicity activities on the human liver carcinoma (HepG2), human breast adenocarcinoma (MCF-7), human colorectal carcinoma (HCT-116), and human lung carcinoma (A549) cell lines were estimated employing the 3-(4,5-dimethyl-2-thiazolyl)-2,5-diphenyl-2H-tetrazolium bromide (MTT) assay, which was grounded on the reduction of the tetrazolium salt by mitochondrial dehydrogenases in viable cells.[51],[52] The cells were dispensed in a 96-well sterile microplate (3 × 10^4 cells/well), followed by their incubation at 37 °C with a series of different concentrations of 10 μL of each compound or doxorubicin (positive control, in DMSO) for 48 h in a serum-free medium prior to the MTT assay. Subsequently, the media were carefully removed, and 40 μL of MTT (2.5 mg/mL) was added to each well and then incubated for an additional 4 h. Purple formazan dye crystals were solubilized by the addition of 200 μL of DMSO. The absorbance was measured at 570 nm using a SpectraMax Paradigm Multi-Mode microplate reader. The relative cell viability was expressed as the mean percentage of viable cells relative to the untreated control cells. All experiments were conducted in triplicate and were repeated on three different days. All of the values were represented as mean ± standard deviation (SD). The IC50s were determined by the SPSS probit analysis software program (SPSS Inc., Chicago, IL).

[2] = tested on: human colorectal carcinoma (HCT-116); assay: MTT cytotoxicity assay, HCT-116; format: cell-based; conditions: 48 h, mean ± SD
Method: as §1, §2

[3] = tested on: human lung carcinoma (A549); assay: MTT cytotoxicity assay, A549; format: cell-based; conditions: 48 h, mean ± SD
Method: as §1, §2

HepG2 cancer cells [4] = assay: Annexin V/PI apoptosis detection by flow cytometry; format: cell-based, human; conditions: negative control DMSO 1.49%
Method: The induction of apoptosis has been investigated using the annexin V/propidium iodide (PI) staining assay for both compounds 7a and 7b on HepG2.
(§3) Cell cycle analysis and apoptosis detection were carried out using flow cytometry.[62] Both HepG2 and MCF-7 cells were seeded at 8 × 10^4 and incubated at 37 °C and 5% CO2 overnight. After treatment with the tested compounds for 24 h, cell pellets were collected and centrifuged (300g, 5 min). For cell cycle analysis, the cell pellets were fixed with 70% ethanol on ice for 15 min and collected again. The collected pellets were incubated with propidium iodide (PI) staining solution (50 μg/mL PI, 0.1 mg/mL RNaseA, 0.05% Triton X-100) at room temperature for 1 h and analyzed using a Gallios flow cytometer (Beckman Coulter, Brea, CA). Apoptosis detection was performed using a FITC annexin V/PI commercial kit (Becton Dickenson, Franklin Lakes, NJ) following the manufacturer’s protocol. The samples were analyzed using fluorescence-activated cell sorting (FACS) with a Gallios flow cytometer (Beckman Coulter, Brea, CA) within 1 h after staining. Data were analyzed using Kaluza v1.2 (Beckman Coulter).

Bax = Bax ELISA in treated HepG2 cells; format: cell-based, human; conditions: cont. HepG2 5.762 ± 1.18
Method: In addition, the pro-apoptotic protein (Bax) is a protein that accelerates apoptosis by binding to and antagonizing the death repressor activity of Bcl-2.[57] Following any apoptotic stimuli, Bax causes activation of caspase-3 and perpetuates the apoptotic cascade.[58] The Bax protein expression level is altered in various human malignancies.[59],[60] Therefore, the effect of both compounds 7a and 7b on the Bax expression level has been studied.
Activities of Bax were measured using the Human Bax ELISA kit (DRG Human Bax ELISA (EIA-4487) DRG International, Inc.) according to the manufacturer’s instructions.

HepG2 cancer cells [5] = assay: Cell cycle analysis by flow cytometry (PI staining); format: cell-based, human; conditions: for accumulation of cells at the Pre G1 phase, fold compared to the control / increase in S phase, fold compared to the reference control / reduction in the percentage of cells at the G2/M phase, fold: HepG2, 7a and 7b at 7.9 and 6.1 μM respectively, 24 h; for %preG / %DIP G2/M / %DIP G1 / %DIP S: HepG2, Figure 3; for %preG: negative control 1.49%; for %DIP G2/M: negative control 9.7%; for %DIP G1: negative control 43.72%; for %DIP S: negative control 46.58%
Method: To elucidate whether the cytotoxic activity is due to suppression of cell cycle progression, HepG2 cells were exposed to compounds 7a and 7b at concentrations of 7.9 and 6.1 μM, respectively, for 24 h and analyzed using flow cytometry. […] These compounds also provided a slight increase in S phases by 0.1- and 0.14-fold, respectively, compared to the reference control, as shown in Figure 3.
as §3

caspase-3 = assay: Caspase-3 (active) ELISA in treated HepG2 cells; format: cell-based, human; conditions: for caspase-3 activation, fold higher than the negative control: HepG2, 7a and 7b at 7.9 and 6.1 μM respectively, 24 h; for caspase-3: HepG2 cells treated 24 h, cont. HepG2 67.3 ± 2.8
Method: It has been reported that caspases cascade through either intrinsic or extrinsic pathways that mediate the induction of apoptosis, which may lead to apoptotic cell death.[53]−[55] Caspase-3 is involved in cell shrinkage, chromatin condensation, and DNA fragmentation inside the cells, causing apoptosis induction.
Activities of caspase-3 were measured using the Invitrogen caspase-3 (Active) (human) ELISA kit, Catalog # KHO1091 (96 tests) (Invitrogen Corporation) according to the manufacturer’s instructions.

[6] = tested on: human breast adenocarcinoma (MCF-7); assay: MTT cytotoxicity assay, MCF-7; format: cell-based; conditions: MCF7, 48 h, mean ± SD
Method: as §1, §2

Bcl-2 = Bcl-2 ELISA in treated HepG2 cells; format: cell-based, human; conditions: for Bcl-2 level relative to control, fold: HepG2, versus control; for Bcl-2: HepG2 cells treated, cont. HepG2 6.222 ± 0.14
Method: Furthermore, it is well known that the antiapoptotic Bcl-2 protein plays a critical role in cancer resistance therapy.[56] Therefore, we have studied the effect of both compounds 7a and 7b on Bcl-2 protein expression levels. They provided a 0.5- and 0.4-fold decrease in the Bcl-2 concentration, respectively.
Activities of Bcl-2 were measured using the Invitrogen Zymed Bcl-2 ELISA Kit, Catalog # 99–0042 (96 tests) (Invitrogen Corporation) according to the manufacturer’s instructions.

CDK-2 enzyme = CDK-2 enzyme (Homo sapiens, UniProt P24941); assay: In vitro CDK-2 enzyme inhibitory assessment (ELISA); format: biochemical
Method: Estimation of CDK-2 was performed using ELISA through an affinity tag labeled capture antibody and a reporter conjugated detector antibody, which immunocapture the sample analyte in solution. The addition of the standard and samples to the wells is carried out, followed by the addition of the antibody mix. After the incubation period is completed, the wells are washed, and the unrestrained substance is discarded. Then, TMB (3,3′,5,5′-tetramethylbenzidine) substrate is added, and prompted by horseradish peroxidase (HRP), blue coloration appeared. The reaction was stopped by the addition of a stop solution, completely changing the color from blue to yellow. Signals were created equivalently to the quantity of the bound analyte, and the intensity was recorded at a certain wavelength (450 nm) using a Robonik P2000 ELISA reader. The concentrations of the tested compounds were calculated from the plotted curve.

IC50 (CDK-2 enzyme): 0.095 ± 0.1 µM
Structure (SMILES): Cc1ccc(NC(=O)c2c(Nc3ccccc3)n[nH]c2N=Cc2c[nH]c3ccccc23)cc1 [7b, 5-((1H-Indol-3-yl)methyleneamino)-3-(phenylamino)-N-(4-methylphenyl)-1H-pyrazole-4-carboxamide]
IC50 [1]: 7.9 ± 1.9 µM | IC50 [2]: 19.6 ± 3.5 µM | IC50 [3]: 14.1 ± 2.1 µM | total necrosis and apoptosis (early and late) percentage (HepG2 cancer cells [4]): 27.51% | Bax (Bax): 272.6 ± 11.5 pg/mL | accumulation of cells at the Pre G1 phase, fold compared to the control (HepG2 cancer cells [5]): 18.5 fold | increase in S phase, fold compared to the reference control (HepG2 cancer cells [5]): 0.14 fold | reduction in the percentage of cells at the G2/M phase, fold (HepG2 cancer cells [5]): 29.4 fold | %preG (HepG2 cancer cells [5]): 27.51% | %DIP G2/M (HepG2 cancer cells [5]): 0.33% | %DIP G1 (HepG2 cancer cells [5]): 46.39% | %DIP S (HepG2 cancer cells [5]): 53.28% | caspase-3 activation, fold higher than the negative control (caspase-3): 5.8 fold | caspase-3 (caspase-3): 469.8 ± 10 pg/mL | IC50 [6]: 14.5 ± 2.5 µM | Bcl-2 level relative to control, fold (Bcl-2): 0.4 fold | Bcl-2 (Bcl-2): 2.479 ± 0.07 ng/mL

IC50 (CDK-2 enzyme): 0.074 ± 0.15 µM
Structure (SMILES): O=C(Nc1ccccc1)c1c(Nc2ccccc2)n[nH]c1N=Cc1c[nH]c2ccccc12 [7a, 5-((1H-Indol-3-yl)methyleneamino)-N-phenyl-3-(phenylamino)-1H-pyrazole-4-carboxamide]
IC50 [1]: 6.1 ± 1.9 µM | IC50 [2]: 17.4 ± 3.2 µM | IC50 [3]: 23.7 ± 3.1 µM | total necrosis and apoptosis (early and late) percentage (HepG2 cancer cells [4]): 22.18% | Bax (Bax): 211.3 ± 5.9 pg/mL | accumulation of cells at the Pre G1 phase, fold compared to the control (HepG2 cancer cells [5]): 14.9 fold | increase in S phase, fold compared to the reference control (HepG2 cancer cells [5]): 0.1 fold | reduction in the percentage of cells at the G2/M phase, fold (HepG2 cancer cells [5]): 2.4 fold | %preG (HepG2 cancer cells [5]): 22.18% | %DIP G2/M (HepG2 cancer cells [5]): 4.11% | %DIP G1 (HepG2 cancer cells [5]): 44.61% | %DIP S (HepG2 cancer cells [5]): 51.28% | caspase-3 activation, fold higher than the negative control (caspase-3): 7 fold | caspase-3 (caspase-3): 388.7 ± 7 pg/mL | IC50 [6]: 10.6 ± 2.3 µM | Bcl-2 level relative to control, fold (Bcl-2): 0.5 fold | Bcl-2 (Bcl-2): 3.123 ± 0.1 ng/mL
